Format in all cases: cell-based
Data set [1] has as its system Heterogeneous SC preadipocytes. The experiment in a line: GPDH activity in heterogeneous bovine SC preadipocytes, IBU, aspirin or indomethacin for 12 days (Example 5). As to conditions: for GPDH activity versus control: P<0.001. How it is done:
(§1) Preadipocytes from IM and SC adipose tissue were isolated using a modification of Forest et al., 1987, Exp. Cell Res. 168:218-232. Cells were seeded at a density of 4,160 cells/cm^2 in 35 mm cell culture wells in DMEM with 5.5 mM glucose, supplemented with 100 units/ml penicillin G, 0.1 mg/ml streptomycin sulfate, 0.25 μg/ml amphotericin B, 0.05 mg/ml gentamicin, 33 μM biotin, 17 μM pantothenate, 200 μM ascorbate, 1 mM octanoate, and 10% fetal bovine serum. The cells were grown in a 37° C./5% CO2 incubator. Growth media was replaced every two days until the cells reached confluency (approximately 4 days), at which point the cells were washed twice with phosphate buffered saline (PBS) and differentiation treatments were applied. The differentiation medium consisted of DMEM with 5.5 mM glucose, 100 units/ml penicillin G, 0.1 mg/ml streptomycin sulfate, 0.25 μg/ml amphotericin B, 0.05 mg/ml gentamicin, 33 μM biotin, 17 μM pantothenate, 200 μM ascorbate, 280 nM bovine insulin, and 5 μl/ml bovine serum lipids (Ex-Cyte, Serologicals Corp., Norcross, Ga.). After 48 hours of differentiation media exposure, the cells were washed twice with PBS and differentiation media was replaced every two days for 10 days. Glycerol-3-phosphate dehydrogenase (GPDH) activity was quantified biochemically by measuring GPDH enzyme activity using a modification of a previously published method (Adams et al., J. Clin. Invest. 100:3149-3153). […] Media was changed every two days as previously described until day 12. Adipogenesis was quantitated by measuring GPDH activity. Data were analyzed using the mixed model procedure of SAS (SAS, Cary, N.C.). In all experiments, pooled cells from two wells of a 6 well (35 mm) plate were considered the experimental unit. When main effects were significant (P<0.05), differences between means were evaluated utilizing Tukey's multiple comparison test. […] To satisfy the conditions of normality and homogeneity of variance, GPDH data were loge transformed in Example 2, and GPDH data were square root transformed in Example 3.

Data set [2] has as its system Heterogeneous IM preadipocytes. The experiment in a line: GPDH activity in heterogeneous bovine IM preadipocytes, IBU, aspirin or indomethacin for 12 days (Example 5). The procedure: as §1
Data set [3] concerns bovine heterogeneous preadipocyte cultures from intramuscular (IM) adipose tissue. In words: GPDH activity in heterogeneous bovine IM preadipocytes, 12 day exposure with DEX (Example 4, FIG. 3). The procedure:
(§2) Preadipocytes from IM and SC adipose tissue were isolated using a modification of Forest et al., 1987, Exp. Cell Res. 168:218-232. Cells were seeded at a density of 4,160 cells/cm^2 in 35 mm cell culture wells in DMEM with 5.5 mM glucose, supplemented with 100 units/ml penicillin G, 0.1 mg/ml streptomycin sulfate, 0.25 μg/ml amphotericin B, 0.05 mg/ml gentamicin, 33 μM biotin, 17 μM pantothenate, 200 μM ascorbate, 1 mM octanoate, and 10% fetal bovine serum. The cells were grown in a 37° C./5% CO2 incubator. Growth media was replaced every two days until the cells reached confluency (approximately 4 days), at which point the cells were washed twice with phosphate buffered saline (PBS) and differentiation treatments were applied. […]
(§3) Glycerol-3-phosphate dehydrogenase (GPDH) activity was quantified biochemically by measuring GPDH enzyme activity using a modification of a previously published method (Adams et al., J. Clin. Invest. 100:3149-3153).
(§4) Media was changed every two days as previously described until day 12. Adipogenesis was quantitated by measuring GPDH activity.
(§5) Data were analyzed using the mixed model procedure of SAS (SAS, Cary, N.C.). […] When main effects were significant (P<0.05), differences between means were evaluated utilizing Tukey's multiple comparison test. […]

Data set [4] has as its system bovine preadipocytes isolated from intramuscular (IM) adipose tissue. In words: GPDH activity in bovine IM preadipocytes, 48 h exposure to DEX and IBU (Example 3, FIG. 2). The conditions noted are these: 48 hours with 25 nM DEX.
Description: (§6) The cells were grown in a 37° C./5% CO2 incubator. Growth media was replaced every two days until the cells reached confluency (approximately 4 days), at which point the cells were washed twice with phosphate buffered saline (PBS) and differentiation treatments were applied. The differentiation medium consisted of DMEM with 5.5 mM glucose, 100 units/ml penicillin G, 0.1 mg/ml streptomycin sulfate, 0.25 μg/ml amphotericin B, 0.05 mg/ml gentamicin, 33 μM biotin, 17 μM pantothenate, 200 μM ascorbate, 280 nM bovine insulin, and 5 μl/ml bovine serum lipids (Ex-Cyte, Serologicals Corp., Norcross, Ga.). After 48 hours of differentiation media exposure, the cells were washed twice with PBS and differentiation media was replaced every two days for 10 days. […] After treatment for 48 hours, media was changed as previously described until day 10. Cells from two beef steers were used, and duplicates of each steer treatment were done. Adipogenesis was quantitated by measuring GPDH activity. Data were analyzed using the mixed model procedure of SAS (SAS, Cary, N.C.). In all experiments, pooled cells from two wells of a 6 well (35 mm) plate were considered the experimental unit. When main effects were significant (P<0.05), differences between means were evaluated utilizing Tukey's multiple comparison test.
For data set [5], the system named is bovine heterogeneous preadipocyte cultures from subcutaneous (SC) adipose tissue. In words: GPDH activity in heterogeneous bovine SC preadipocytes, 12 day exposure with DEX (Example 4, FIG. 3). How it is done: as §2, §3, §4, §5
In data set [6] the test system is bovine preadipocytes isolated from subcutaneous (SC) adipose tissue. In words: GPDH activity in bovine SC preadipocytes, 48 h exposure to DEX and IBU (Example 3, FIG. 2). As to conditions: IBU for 48 hours with 25 nM DEX.
Description: as §6

Entries after “also recorded” stand apart in the source; their conditions may differ.

For the compound `CC(=O)Oc1ccccc1C(=O)O` [Aspirin, aspirin], the “GPDH activity, aspirin alone” value in data set [1] (SC preadipocytes, 500 μM, 12 days, alone) is recorded as “did not affect GPDH activity; also recorded: did not enhance GPDH activity”; in data set [2] (IM preadipocytes, 500 μM, 12 days, alone), “did not affect GPDH activity; also recorded: did not enhance GPDH activity”. For the same compound, the “GPDH activity, aspirin in combination with DEX” value in data set [1] (SC preadipocytes, 500 μM, 12 days, with DEX) is recorded as “did not enhance GPDH activity”; in data set [2] (IM preadipocytes, 500 μM, 12 days, with DEX), “did not enhance GPDH activity”.
For the compound `CC(C)Cc1ccc(C(C)C(=O)O)cc1` (centres unmarked) [IBU, 2-(p-isobutylphenyl)propionic acid], the “effect of IBU on DEX induction of differentiation (GPDH)” value is recorded as “enhanced DEX induction of differentiation” in data set [3] (100 μM IBU); “enhanced DEX induction of differentiation” in data set [3] (500 μM IBU); “enhanced DEX induction of differentiation” in data set [5] (SC cells, 100 μM IBU). The entries for the “effect of IBU on DEX stimulation of GPDH activity” value in data set [4] (1000 μM IBU), in data set [4] (2000 μM IBU) and in data set [6] were “enhanced DEX stimulation of GPDH activity”, “enhanced DEX stimulation of GPDH activity” and “did not enhance DEX stimulation of GPDH activity”, respectively. The “effect of IBU on DEX stimulation of GPDH” value in data set [5] (SC preadipocytes, 1000 μM IBU) is given as “reduced DEX stimulation of GPDH”. Moreover, the “maximum induction of GPDH activity” value in data set [1] (SC cells, IBU, 12 days, absence of DEX) was 1.7 fold over control; in data set [2] (IM cells, IBU, 12 days, absence of DEX) it was 12 fold over control. For the same compound, the “GPDH activity versus control” value was “enhanced GPDH activity” in data set [1] (SC preadipocytes, 10 μM IBU, 12 days, absence of DEX); “enhanced GPDH activity” in data set [1] (SC preadipocytes, 100 μM IBU, 12 days, absence of DEX); “enhanced GPDH activity” in data set [1] (SC preadipocytes, 500 μM IBU, 12 days, absence of DEX); “higher than control” in data set [2] (IM cells, 1000 μM IBU, 12 days, absence of DEX, P=0.003); “enhanced GPDH” in data set [2] (IM preadipocytes, 500 μM IBU, 12 days, absence of DEX).
For the compound `COc1ccc2c(c1)c(CC(=O)O)c(C)n2C(=O)c1ccc(Cl)cc1` [Indomethacin, indomethacin], the toxicity to cells entry in data set [1] (SC preadipocytes, 500 μM, up to 12 days) is on record as “toxic to cells”; in data set [2] (IM preadipocytes, 500 μM, up to 12 days), “toxic to cells”.

The values are drawn from patent US20100048710A1, “Methods and Compositions for Modulating Muscle Fat in Livestock” (priority 2006, published 2010).
